Assay results from patent publication US4950667A, “Pyridinyl acetamide compounds useful in treating ulcers” (Hamari Chemicals, Ltd., priority 1988, dated 1990).
Where a name gives a salt, the structure may show the parent alone.

Legend:
[1] = test system: water-immersion stress-induced gastric ulcer (Slc:SD rats); assay: Water-immersion stress ulceration method; type: in vivo, rat (male Slc:SD); conditions: for Inhibition rate: vs non-treated control
Experimental: The stomachs were incised along the greater curvature, and the ulcers thus induced were measured for length under the stereoscopic microscope (magnification,×10), whereby the total sum of the lengths was taken as an ulcer index (U.I., in mm). The test substance was given orally to rats in the form of a 4% gum arabic suspension 30 minutes before stress loading.

Acute toxicity = conditions: mouse, in vivo; male ddY mice, single oral dose, observed for 7 days
Source text: A group of five male ddY mice (4-weeks aged) was used for testing.
The compound of Example 1 was suspended in 4% gum arabic solution to prepare a test pharmaceutical, which was given orally to each test animals once.

[2] = 30 mg/kg, oral, 30 minutes before stress loading, 7 hours stress
[3] = 10 mg/kg, oral, 30 minutes before stress loading, 7 hours stress

| Compound | Inhibition rate ([1]; 30 mg/kg, control reference (Cimetidine), no significance mark) | ulcer index (U.I.), Mean ± S.E. [1, 2] | ulcer index (U.I.), Mean ± S.E. [1, 3] | Inhibition rate [1, 3] | Inhibition rate ([1]; 30 mg/kg, oral, 30 minutes before stress loading, 7 hours stress, *p < 0.05) | ulcer index (U.I.), Mean ± S.E. ([1]; 100 mg/kg, oral, 30 minutes before stress loading, 7 hours stress) | Inhibition rate ([1]; 100 mg/kg, oral, 30 minutes before stress loading, 7 hours stress, **p < 0.01) | LD50 at 168 h (Acute toxicity) |
| --- | --- | --- | --- | --- | --- | --- | --- | --- |
| CN/C(=N/CCSCc1nc[nH]c1C)NC#N [Cimetidine, reference compound] | 61.4% | 5.2 ± 3.40 mm | – | – | – | – | – | – |
| O=C(CNc1ccncc1)Nc1ccccc1Nc1ccccc1 [Example 1, N-[2-(phenylamino),phenyl]-2-[(4-pyridinyl)-amino]actetamide hydrochloride] | – | 3.8 ± 1.66 mm | 13.0 ± 4.47 mm | 2.8% | 71.3% | 1.5 ± 1.31 mm | 88.8% | ≥ 2000 mg/kg |
